Consider one compound from paper PMC6368365, “Didehydro-Cortistatin A Inhibits HIV-1 by Specifically Binding to the Unstructured Basic Region of Tat” (mBio, 2019).

On the set-up of series [1]: method as in PMID 22817991, PMID 29045830, PMID 25613133. Particulars: cited from earlier work.
Details of series [2]: method as in PMID 22817991, PMID 29045830, PMID 25613133. Conditions: mice; cited from earlier work.
The test system of series [3] is NL4-3 strain in CDK8/CDK19 knockdown cells. The series can be described thus: NL4-3 infection of CDK8/CDK19 knockdown HeLa CD4 cells. Format: cell-based, HIV-1. Particulars: dCA 200 nM, CDK8, CDK19 or CDK8/CDK19 knockdown; viral mRNA and p24. As for the experimental part:
The only other known ligand for dCA is CDK8. […] As such, virus-like particles (VLPs) expressing short hairpin RNAs (shRNAs) against CDK8, CDK19, CDK8/CDK19, or the shRNA control were transduced into HeLa CD4 cells. Stabilization of the knockdown was performed by puromycin selection of the populations over a 2-week period. Both RT-qPCR and Western blotting confirmed successful knockdown of CDK8/CDK19 proteins (Fig. 4A and B). These cells were then infected with NL4-3 and treated or not with dCA, and production of viral RNA and p24 in the supernatant were assessed 72 hours later. […]
HeLa CD4 cells were transduced with VLPs expressing shRNAs against CDK8, CDK19, or both and puromycin selected to stabilize knockdown (KD). […], mRNA, DNA, and p24 capsid in supernatant were collected and measured. (A and B) CDK8 mRNA and CDK19 mRNA expression was assessed by qRT-PCR and normalized to GAPDH mRNA. […] (C) Protein expression of CDK8 and CDK19 was analyzed 72 hours postinfection by Western blotting. […] (D) Viral mRNA production measured by qRT-PCR using primers against the Nef region was measured as a function of total integrated proviral DNA. […] Statistical significance was determined using one-way ANOVA with post hoc Tukey’s test. ns, not significant; ns^a, DMSO KD CDK19 versus dCA KD CDK19. *, P < 0.01; ***, P < 0.0001; **, P < 0.001. […]

As to `CN(C)C1CC23CCC4(O2)C(=CCC2(C)C(c5ccc6ccncc6c5)=CCC24)C=C3C(O)C1O` (stereo not drawn) [dCA, didehydro-cortistatin A], the solubility in water entry in series [1] is on record as “very soluble in water”. In addition, the bioavailability entry in series [2] is “good bioavailability in mice”. For the same compound, in series [3], the “dependence of anti-HIV activity on CDK8” value is “does not mediate its anti-HIV activity through CDK8 inhibition”.
